The text below walks through data of ChEMBL document CHEMBL5696442, “Discovery of type II inhibitors of TGFβ-activated kinase 1 (TAK1) and mitogen-activated protein kinase kinase kinase kinase 2 (MAP4K2)” (J Med Chem, 2015).

Experiment [1] concerns the target Casein kinase II subunit alpha (Homo sapiens) (UniProt P68400). Kind of experiment: Inhibition of CSNK2A1 (unknown origin) at 1 uM by Ambit Kinomescan binding assay relative to control; values are per cent of control.
The target of experiment [2] is Cyclin-dependent kinase 4 (Homo sapiens) (UniProt P11802). The experiment is described as follows: Inhibition of CDK4 Lys2 labeling site in human A-375 cells at 0.05 uM by KiNativ Profiling analysis relative to control. The format is cell-based.
For experiment [3], the target named is RAC-beta serine/threonine-protein kinase (Homo sapiens) (UniProt P31751). The experiment is described as follows: Inhibition of AKT2 ATP Loop labeling site in human A-375 cells at 5 uM by KiNativ Profiling analysis relative to control. Format: cell-based.
Sequence of RAC-beta serine/threonine-protein kinase (Homo sapiens) (P31751 whole entry): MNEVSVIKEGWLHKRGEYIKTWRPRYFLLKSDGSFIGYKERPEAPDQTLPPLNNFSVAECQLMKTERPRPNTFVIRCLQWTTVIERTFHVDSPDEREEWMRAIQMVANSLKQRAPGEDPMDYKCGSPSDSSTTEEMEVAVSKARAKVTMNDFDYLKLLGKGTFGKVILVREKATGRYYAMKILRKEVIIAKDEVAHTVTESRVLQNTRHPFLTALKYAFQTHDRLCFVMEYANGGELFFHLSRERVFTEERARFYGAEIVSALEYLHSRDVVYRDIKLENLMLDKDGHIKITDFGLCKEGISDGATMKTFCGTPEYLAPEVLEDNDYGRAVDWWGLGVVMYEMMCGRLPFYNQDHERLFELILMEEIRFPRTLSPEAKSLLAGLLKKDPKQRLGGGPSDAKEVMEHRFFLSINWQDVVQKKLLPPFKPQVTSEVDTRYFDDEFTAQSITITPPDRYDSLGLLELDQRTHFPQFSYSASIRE
Experiment [4] has as its target Dual specificity mitogen-activated protein kinase kinase 2 (Homo sapiens) (UniProt P36507). The experiment is described as follows: Inhibition of MAP2K2 Lys1 labeling site in human A-375 cells at 5 uM by KiNativ Profiling analysis relative to control. Format: cell-based.
Experiment [5] addresses Tyrosine-protein kinase Fer (Homo sapiens, UniProt P16591). Kind of experiment: Inhibition of FER Lys1 labeling site harbouring DKTSVAVKTCKEDLPQELK in human A-375 cells at 0.05 uM by KiNativ Profiling analysis relative to control. Format: cell-based.
The target of experiment [6] is Serine/threonine-protein kinase ATR (Homo sapiens) (UniProt Q13535). Kind of experiment: Inhibition of ATR ATP labeling site in human A-375 cells at 0.5 uM by KiNativ Profiling analysis relative to control. The format is cell-based.
Sequence of Serine/threonine-protein kinase ATR (Homo sapiens) (Q13535 whole entry, looked up): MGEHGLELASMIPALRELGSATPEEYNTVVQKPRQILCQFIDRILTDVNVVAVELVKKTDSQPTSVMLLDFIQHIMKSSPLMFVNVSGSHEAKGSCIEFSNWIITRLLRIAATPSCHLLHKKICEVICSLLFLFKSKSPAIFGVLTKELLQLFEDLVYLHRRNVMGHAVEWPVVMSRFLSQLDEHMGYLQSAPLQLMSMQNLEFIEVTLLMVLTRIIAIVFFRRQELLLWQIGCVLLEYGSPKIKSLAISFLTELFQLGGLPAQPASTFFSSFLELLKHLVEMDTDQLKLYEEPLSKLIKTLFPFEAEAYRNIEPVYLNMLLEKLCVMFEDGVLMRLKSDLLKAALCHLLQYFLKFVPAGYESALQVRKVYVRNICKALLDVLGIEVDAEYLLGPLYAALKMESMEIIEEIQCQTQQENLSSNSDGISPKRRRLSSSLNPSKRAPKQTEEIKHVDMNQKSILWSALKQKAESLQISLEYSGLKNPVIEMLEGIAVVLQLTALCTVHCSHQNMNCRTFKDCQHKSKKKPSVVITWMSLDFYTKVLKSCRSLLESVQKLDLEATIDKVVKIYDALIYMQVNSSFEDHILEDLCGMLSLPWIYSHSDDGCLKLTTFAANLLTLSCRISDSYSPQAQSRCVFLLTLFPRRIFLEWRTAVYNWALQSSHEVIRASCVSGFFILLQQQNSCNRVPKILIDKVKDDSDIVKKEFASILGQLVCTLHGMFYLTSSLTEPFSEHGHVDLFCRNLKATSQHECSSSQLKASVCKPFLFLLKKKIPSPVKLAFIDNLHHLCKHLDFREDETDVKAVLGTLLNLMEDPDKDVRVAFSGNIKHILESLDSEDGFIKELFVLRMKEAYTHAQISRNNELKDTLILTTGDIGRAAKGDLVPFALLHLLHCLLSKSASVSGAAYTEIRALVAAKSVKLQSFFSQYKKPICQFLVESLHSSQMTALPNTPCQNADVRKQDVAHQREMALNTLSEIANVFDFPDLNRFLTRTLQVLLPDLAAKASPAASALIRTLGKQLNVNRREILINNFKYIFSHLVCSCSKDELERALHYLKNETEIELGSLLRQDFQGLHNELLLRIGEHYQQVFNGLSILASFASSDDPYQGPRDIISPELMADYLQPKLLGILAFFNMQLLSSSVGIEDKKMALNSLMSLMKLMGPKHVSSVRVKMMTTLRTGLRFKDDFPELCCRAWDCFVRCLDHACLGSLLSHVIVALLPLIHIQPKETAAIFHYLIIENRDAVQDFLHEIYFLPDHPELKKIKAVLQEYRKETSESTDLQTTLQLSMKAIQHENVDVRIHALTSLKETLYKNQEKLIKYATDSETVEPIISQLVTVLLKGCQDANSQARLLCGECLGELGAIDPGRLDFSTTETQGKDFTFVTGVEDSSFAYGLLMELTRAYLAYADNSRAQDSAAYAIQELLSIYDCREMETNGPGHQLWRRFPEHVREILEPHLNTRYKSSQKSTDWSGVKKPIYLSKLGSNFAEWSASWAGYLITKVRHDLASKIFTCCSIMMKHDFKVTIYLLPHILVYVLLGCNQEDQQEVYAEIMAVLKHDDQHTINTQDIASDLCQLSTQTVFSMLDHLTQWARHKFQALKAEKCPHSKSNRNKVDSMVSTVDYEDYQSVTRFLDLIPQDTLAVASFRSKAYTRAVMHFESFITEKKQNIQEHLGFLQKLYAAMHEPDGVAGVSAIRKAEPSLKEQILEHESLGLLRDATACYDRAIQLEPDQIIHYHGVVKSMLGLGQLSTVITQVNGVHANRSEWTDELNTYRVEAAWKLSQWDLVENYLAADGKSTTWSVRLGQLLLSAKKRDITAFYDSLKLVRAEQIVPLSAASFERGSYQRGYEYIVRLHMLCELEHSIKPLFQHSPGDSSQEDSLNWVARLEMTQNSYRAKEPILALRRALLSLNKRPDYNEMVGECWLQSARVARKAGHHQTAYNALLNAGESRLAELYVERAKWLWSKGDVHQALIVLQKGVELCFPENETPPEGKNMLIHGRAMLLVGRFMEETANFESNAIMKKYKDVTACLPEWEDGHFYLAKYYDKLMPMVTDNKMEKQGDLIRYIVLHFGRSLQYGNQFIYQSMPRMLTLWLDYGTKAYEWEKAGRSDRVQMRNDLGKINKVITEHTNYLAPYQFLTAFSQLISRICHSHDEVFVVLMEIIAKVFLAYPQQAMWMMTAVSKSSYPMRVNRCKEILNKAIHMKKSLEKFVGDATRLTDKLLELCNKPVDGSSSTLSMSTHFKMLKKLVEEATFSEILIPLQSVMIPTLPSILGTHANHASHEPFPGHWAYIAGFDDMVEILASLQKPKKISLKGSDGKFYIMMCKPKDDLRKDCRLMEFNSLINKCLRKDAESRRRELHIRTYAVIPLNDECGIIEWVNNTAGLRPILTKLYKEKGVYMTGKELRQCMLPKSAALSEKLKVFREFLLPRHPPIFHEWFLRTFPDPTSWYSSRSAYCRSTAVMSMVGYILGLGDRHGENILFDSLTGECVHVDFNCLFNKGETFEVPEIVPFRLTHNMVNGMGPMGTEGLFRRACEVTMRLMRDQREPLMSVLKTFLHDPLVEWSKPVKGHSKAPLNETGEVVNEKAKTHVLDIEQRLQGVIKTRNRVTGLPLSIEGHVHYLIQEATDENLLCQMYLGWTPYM
Experiment [7] deals with T1, Atrial natriuretic peptide receptor 2 (Homo sapiens) (UniProt P20594).
T1 sequence (whole entry): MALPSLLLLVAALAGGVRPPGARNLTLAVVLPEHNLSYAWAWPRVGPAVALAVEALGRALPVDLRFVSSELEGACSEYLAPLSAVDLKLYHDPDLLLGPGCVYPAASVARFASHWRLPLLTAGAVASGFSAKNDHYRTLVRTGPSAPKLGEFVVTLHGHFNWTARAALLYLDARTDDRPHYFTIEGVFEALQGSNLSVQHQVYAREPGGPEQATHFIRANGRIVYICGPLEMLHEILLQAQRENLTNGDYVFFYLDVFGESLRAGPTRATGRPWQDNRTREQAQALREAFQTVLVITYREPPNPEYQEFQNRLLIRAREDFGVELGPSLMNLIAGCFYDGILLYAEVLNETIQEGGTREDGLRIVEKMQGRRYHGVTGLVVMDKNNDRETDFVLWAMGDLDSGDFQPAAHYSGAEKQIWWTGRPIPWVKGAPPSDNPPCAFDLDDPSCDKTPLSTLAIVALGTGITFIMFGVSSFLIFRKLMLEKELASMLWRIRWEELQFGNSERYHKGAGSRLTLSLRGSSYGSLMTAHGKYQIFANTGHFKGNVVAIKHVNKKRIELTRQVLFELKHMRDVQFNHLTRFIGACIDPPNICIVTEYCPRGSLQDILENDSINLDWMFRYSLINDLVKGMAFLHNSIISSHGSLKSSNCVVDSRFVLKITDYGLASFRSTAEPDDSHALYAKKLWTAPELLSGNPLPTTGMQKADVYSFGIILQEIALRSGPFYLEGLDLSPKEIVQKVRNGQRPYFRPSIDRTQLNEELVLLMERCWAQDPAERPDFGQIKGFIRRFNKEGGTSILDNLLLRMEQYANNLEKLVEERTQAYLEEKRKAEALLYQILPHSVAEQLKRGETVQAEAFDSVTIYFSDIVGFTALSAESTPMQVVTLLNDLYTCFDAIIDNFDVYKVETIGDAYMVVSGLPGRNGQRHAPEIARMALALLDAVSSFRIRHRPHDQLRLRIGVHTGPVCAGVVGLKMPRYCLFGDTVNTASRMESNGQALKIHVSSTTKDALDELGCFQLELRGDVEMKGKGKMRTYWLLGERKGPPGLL
Kind of experiment: Inhibition of ANPb Lys2 labeling site in human A-375 cells at 0.5 uM by KiNativ Profiling analysis relative to control. The format is cell-based.

For experiment [8], the target named is Tyrosine-protein kinase JAK2 (Homo sapiens) (UniProt O60674). Kind of experiment: Inhibition of JAK2 JH1 catalytic domain (unknown origin) at 10 uM by Ambit Kinomescan binding assay relative to control.
Sequence of Tyrosine-protein kinase JAK2 (Homo sapiens) (O60674 whole entry, the tested form may be a part): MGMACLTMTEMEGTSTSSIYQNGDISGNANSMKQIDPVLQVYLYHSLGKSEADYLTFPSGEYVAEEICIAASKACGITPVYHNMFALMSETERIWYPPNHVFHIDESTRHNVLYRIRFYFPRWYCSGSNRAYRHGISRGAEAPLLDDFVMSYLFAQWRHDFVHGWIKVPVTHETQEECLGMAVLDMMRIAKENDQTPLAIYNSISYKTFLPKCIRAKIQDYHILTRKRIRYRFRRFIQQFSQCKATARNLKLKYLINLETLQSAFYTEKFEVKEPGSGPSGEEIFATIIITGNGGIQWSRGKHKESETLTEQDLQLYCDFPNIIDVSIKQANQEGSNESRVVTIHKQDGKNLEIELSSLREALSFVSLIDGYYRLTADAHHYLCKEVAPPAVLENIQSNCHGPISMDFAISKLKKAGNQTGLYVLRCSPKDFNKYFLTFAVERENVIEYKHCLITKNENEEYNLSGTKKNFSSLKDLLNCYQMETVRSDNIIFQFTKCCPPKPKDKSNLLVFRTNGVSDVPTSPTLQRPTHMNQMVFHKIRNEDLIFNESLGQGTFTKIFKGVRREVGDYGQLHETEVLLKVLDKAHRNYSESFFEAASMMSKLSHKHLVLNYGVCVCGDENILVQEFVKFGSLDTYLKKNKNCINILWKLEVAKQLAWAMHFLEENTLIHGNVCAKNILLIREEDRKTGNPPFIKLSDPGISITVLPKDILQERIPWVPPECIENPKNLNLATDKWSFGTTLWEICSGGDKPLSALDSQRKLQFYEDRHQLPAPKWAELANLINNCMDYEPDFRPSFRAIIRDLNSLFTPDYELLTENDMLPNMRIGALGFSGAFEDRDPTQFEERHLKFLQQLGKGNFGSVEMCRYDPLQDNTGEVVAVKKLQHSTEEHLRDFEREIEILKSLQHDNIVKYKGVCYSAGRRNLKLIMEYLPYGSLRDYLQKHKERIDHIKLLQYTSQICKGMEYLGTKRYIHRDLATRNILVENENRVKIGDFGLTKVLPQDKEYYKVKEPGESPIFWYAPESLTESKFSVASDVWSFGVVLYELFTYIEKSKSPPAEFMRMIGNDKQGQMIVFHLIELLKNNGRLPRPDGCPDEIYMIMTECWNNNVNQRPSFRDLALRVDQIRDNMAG
Another experiment relates to RAW. The experiment is described as follows: Inhibition of LPS induced p38 phosphorylation in mouse RAW cells preincubated for 1 hr followed by LPS stimulation and measured after 30 mins by Western blot analysis. Conditions: dose 0.01-10 µM. Format: functional, cell-based.
Experiment [9] addresses T2, Scaffold protein ILK (Homo sapiens) (UniProt Q13418).
T2 sequence (whole entry): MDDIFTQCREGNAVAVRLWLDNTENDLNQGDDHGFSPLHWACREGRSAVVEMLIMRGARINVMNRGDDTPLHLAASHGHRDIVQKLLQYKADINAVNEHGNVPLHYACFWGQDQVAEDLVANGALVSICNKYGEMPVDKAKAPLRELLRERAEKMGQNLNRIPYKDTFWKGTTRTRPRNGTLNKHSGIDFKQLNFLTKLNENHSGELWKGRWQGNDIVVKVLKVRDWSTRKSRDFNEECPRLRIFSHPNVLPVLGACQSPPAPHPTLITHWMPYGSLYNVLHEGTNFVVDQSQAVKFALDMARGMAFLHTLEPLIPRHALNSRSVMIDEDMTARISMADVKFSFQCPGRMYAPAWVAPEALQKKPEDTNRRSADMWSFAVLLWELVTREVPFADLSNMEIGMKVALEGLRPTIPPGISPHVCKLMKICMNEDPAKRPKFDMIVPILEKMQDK
The experiment is described as follows: Inhibition of ILK Protein Kinase Domain labeling site in human Huh-7 cells at 1 uM by KiNativ Profiling analysis relative to control. The format is cell-based.

Experiment [10] deals with T3, Mitogen-activated protein kinase kinase kinase 2 (Homo sapiens) (UniProt Q9Y2U5).
T3 sequence (whole entry): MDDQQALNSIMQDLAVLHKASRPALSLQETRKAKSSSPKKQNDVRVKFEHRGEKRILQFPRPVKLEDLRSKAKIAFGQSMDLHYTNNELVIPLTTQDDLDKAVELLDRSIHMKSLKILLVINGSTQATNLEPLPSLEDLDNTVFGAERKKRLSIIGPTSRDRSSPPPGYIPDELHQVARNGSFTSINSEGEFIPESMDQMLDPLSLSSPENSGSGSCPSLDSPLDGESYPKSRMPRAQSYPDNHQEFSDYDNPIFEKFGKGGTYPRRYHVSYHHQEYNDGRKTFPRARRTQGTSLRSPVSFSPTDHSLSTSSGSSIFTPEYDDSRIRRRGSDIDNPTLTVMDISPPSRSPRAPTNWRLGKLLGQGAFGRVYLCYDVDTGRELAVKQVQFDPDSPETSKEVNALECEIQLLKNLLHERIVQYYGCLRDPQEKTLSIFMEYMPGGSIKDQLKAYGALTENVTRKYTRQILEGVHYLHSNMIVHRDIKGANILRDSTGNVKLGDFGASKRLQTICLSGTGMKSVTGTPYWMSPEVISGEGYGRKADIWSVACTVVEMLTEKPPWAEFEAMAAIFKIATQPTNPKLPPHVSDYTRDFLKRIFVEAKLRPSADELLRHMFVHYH
Kind of experiment: Inhibition of MAP3K2 Lys1 labeling site in human Huh-7 cells at 1 uM by KiNativ Profiling analysis relative to control. The format is cell-based.

Sequence of Dual specificity mitogen-activated protein kinase kinase 2 (Homo sapiens) (P36507 whole entry): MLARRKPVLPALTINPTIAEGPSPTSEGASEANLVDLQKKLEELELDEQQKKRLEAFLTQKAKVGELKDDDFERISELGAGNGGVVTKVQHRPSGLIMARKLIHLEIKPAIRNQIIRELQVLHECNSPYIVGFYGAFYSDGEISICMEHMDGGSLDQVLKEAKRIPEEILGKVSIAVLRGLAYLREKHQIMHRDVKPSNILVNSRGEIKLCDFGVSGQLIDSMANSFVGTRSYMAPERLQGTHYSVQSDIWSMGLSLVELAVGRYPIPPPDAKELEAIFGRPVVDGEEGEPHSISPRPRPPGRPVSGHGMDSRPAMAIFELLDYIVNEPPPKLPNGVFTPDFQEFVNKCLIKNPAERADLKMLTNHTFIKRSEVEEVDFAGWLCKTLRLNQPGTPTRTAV
Sequence of Casein kinase II subunit alpha (Homo sapiens) (P68400 whole entry, looked up): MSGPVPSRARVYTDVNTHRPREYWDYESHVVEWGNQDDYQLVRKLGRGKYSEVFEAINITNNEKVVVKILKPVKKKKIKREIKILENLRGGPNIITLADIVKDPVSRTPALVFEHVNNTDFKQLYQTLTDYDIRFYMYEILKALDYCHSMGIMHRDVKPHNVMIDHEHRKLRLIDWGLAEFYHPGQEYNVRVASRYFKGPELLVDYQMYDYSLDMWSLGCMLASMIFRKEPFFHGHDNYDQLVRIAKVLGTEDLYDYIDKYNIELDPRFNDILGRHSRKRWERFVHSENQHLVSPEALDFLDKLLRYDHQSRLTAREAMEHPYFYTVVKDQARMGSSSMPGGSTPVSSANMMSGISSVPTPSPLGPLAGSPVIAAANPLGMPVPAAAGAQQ

With `CCN1CCN(Cc2ccc(NC(=O)c3ccc(C)c(/C=C/c4cnc5[nH]ccc5c4OC)c3)cc2C(F)(F)F)CC1`, in experiment [1], the residual activity stood at 100%. In addition, the inhibition in experiment [2] is -10%; in experiment [3] it was 13.3%.

Take `CCN1CCN(Cc2ccc(NC(=O)c3ccc(C)c(Oc4ccnc5[nH]ccc45)c3)cc2C(F)(F)F)CC1`: the inhibition was 1.3% in experiment [4]; 62.8% in experiment [5]; 5.1% in experiment [6]; -9.4% in [7]; 11% in [8]; “Dose-Dependent Effect” with RAW.

Consider `CNc1cc(Oc2cc(C(=O)Nc3cc(N4CCN(C)CC4)cc(C(F)(F)F)c3)ccc2C)ncn1`, for which the inhibition is -0.1% in [9] and 28.2% in [10].
